In this test the test system is guinea pigs immunized with mycobacterial cell sonicates. The conditions noted are these: guinea pig, in vivo.

Several values for one entry are separate records, joined by “and”; a condition that tells them apart may be missing. Identical values can stand only once. Entries after “also recorded” stand apart in the source; their conditions may differ. Where no end group is shown, it is not given here.

For “CAKVNIKPLQDKIC (cysteine pairing not given here) [Polypeptide (diCys Terminated), residues 1-12 of the BCG-a protein with Cys at both termini]”, the “DCH Reaction To 250 Micrograms Of Polypeptide (positive DCH reactions/total trials)” value was 7/7 and 4/4 and 0/4 and 0/3 and 2/4 and 5/5 and 0/5; the “DCH reaction (in words)” value is “most pronounced DCH reactions; also recorded: developed a DCH reaction”; the “delayed cutaneous hypersensitivity reaction (in words)” value is given as “more pronounced delayed cutaneous hypersensitivity reaction”.

The record behind these values is patent publication US4889800A (priority 1987, dated 1989).
